Assay results published in article PMC6452685, “Lysyl-tRNA synthetase as a drug target in malaria and cryptosporidiosis” (Proceedings of the National Academy of Sciences of the …, 2019).

Key:
C. parvum = experiment: Anti-Cryptosporidium in vivo efficacy in NOD SCID gamma mice; design: species or system mouse
Description: INF-γ–knockout mice ([28], [29]) were infected orally with Nluc-expressing transgenic C. parvum oocysts. Treatment started upon patency 4 d postinfection (p.i.), and mice were treated orally once a day for 7 d. Infection was monitored daily by luciferase measurements in pooled feces of the entire cage. Mice were followed for 3 wk after completion of drug treatment. […] NOD SCID gamma mice were infected with C. parvum oocysts ([26]). Treatment started 7 d p.i., and mice were treated orally once a day for 7 d. The study was run with four mice per cage; infection was monitored by quantitative PCR on day eight for individual mice, and data are shown as oocysts per milligram of feces. […]
Data analysis was performed using GraphPad Prism 7.0 (GraphPad S oftware), Excel 2016 (Microsoft ) and R free so ftware (https://www.r-project.org) for data pl otti ng and s tati s ti cal model li ng. […]
The Nl uc-C. parvum IFN-γ-knockout (IFN-γ KO) m ouse in vivo experiments were run in acco rdance with the publ i s hed method (22). Briefly, female C57BL/ 6 IFN-γ KO mi ce, aged 6–8 weeks were infected with 10,000 C. parvum UG A1 Nl uc (Vi naya k et al 2015, Natu re) tra ns g eni c oocys ts . Mi ce (n=5 per g rou p) w ere admi ni s t ered 20 mg /k g of comp o und 5 fo rmul ated i n 3% et hanol , 7% Tw een 8 0, 90 % saline or t he f ormul at i on (v ehi cl e) by o ral g av ag e. […]

CYP1A2 = target: T1, CYP1A2 (Homo sapiens, UniProt P05177); experiment: Fluorescence-based CYP inhibition, CYP1A2; type: in vitro ADME
T1 construct: purchased Cypex, Dundee, UK; host or cells: bacterial membranes (bactosomes)
Description: 4.7 F lu or e s ce nce-based CYP I nhibition usin g recombinantly expressed CYP b actosomes Fl uorogeni c C YP i nhi bi t i on s t udi es w ere c ondu ct ed at 37 °C i n 96-well, flat-bot t om, cl ear p ol y s t y rene pl at es. I ncubat i on mi xt ures cont ai ni ng Eas y C YP bact os omes (1000 pmol /ml , 10 mg /ml C y pex TM, Dundee, UK), fl uorogeni c substrate (Cypex TM) and 50 mM potas s i um phosphat e buffer (p H 7. 4) w er e prepared at t he fol l ow i ng fi nal concent rat i ons : C YP1A2, 5 pmol /ml + 35 µ M et hox y res orufi n (ER) ; CYP2C9, 10 pm ol/ml + 30 µM 7-methoxy-4-(tri fl uo romethy l )-coumari n (MFC ); C YP 2C 19, 5 pm ol /ml + 25 µM 3-cy ano-7-eth oxycoumarin (CEC); C YP 2D 6, 10 pmol /ml + 6 µM 7-meth oxy-4-(ami nomethy l )- coumari n (MAMC ); C YP 3A4, 10 pmol /ml + 1 µM diethoxyfluorescein (DEF) and 10 pmol /ml + 15 µM 7-benz y l ox y qui nol i ne (BQ ). […] 0125 ( 1A2 and 2C 9 onl y ) o r 0. 025 mg /ml (al l ot her i s oforms ). […] Positive control inhibitor, miconazole, was prepared as a 500 µM s olution in DMSO and similarly diluted.
For eac h i sofo rm, 2 20 µl of i ncubati on mi x was added to each wel l of a 96-well, flat-bot t om, cl ear pol y s t y rene pl at e. Al i quot s (5 µl) of each compound 5 conce ntrati on was then mi x ed wi th 220 µl of the incubation mix and pre-incubated at 37 °C for 5 min (final test compound concentration range: […]

[1] = Toxicity in mice at higher doses; type: in vivo; settings: higher doses (50 mg/kg orally)
[2] = target: human ether-à-go-go related gene (hERG) K+ channel (Homo sapiens, UniProt Q12809); experiment: hERG K+ channel assay (IonWorks patch clamp); type: cell-based
[3] = In vivo pharmacokinetics in mouse
Description: 5. In vi vo pharmacokinetic and efficacy studies
5.1 In viv o ph armacokinetics (Dundee)
The l ev el of each comp ound i n mouse bl ood was determi ned by UPLC -MS/MS as previously re port e d (18). Pharmacokinetic parameters were derived from the blood c oncent ration time curve usi ng PKsol uti ons software v 2.0 (Summi t Research Servi ces, USA). […]

T1 sequence (P05177 whole entry): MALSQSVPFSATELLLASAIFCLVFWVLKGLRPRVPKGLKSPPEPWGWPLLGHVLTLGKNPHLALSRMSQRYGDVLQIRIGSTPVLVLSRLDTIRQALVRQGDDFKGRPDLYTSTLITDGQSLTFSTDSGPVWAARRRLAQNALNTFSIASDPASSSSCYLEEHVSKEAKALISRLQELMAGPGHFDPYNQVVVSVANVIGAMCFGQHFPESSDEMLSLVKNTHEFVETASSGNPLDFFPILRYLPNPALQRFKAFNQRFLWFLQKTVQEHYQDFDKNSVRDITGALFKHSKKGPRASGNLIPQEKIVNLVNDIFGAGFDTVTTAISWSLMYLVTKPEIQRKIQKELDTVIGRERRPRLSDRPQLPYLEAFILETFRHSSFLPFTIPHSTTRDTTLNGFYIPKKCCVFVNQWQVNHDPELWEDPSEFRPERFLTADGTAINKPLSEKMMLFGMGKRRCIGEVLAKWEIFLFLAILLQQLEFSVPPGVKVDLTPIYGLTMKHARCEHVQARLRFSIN
Chain of human ether-à-go-go related gene (hERG) K+ channel (Q12809 whole entry): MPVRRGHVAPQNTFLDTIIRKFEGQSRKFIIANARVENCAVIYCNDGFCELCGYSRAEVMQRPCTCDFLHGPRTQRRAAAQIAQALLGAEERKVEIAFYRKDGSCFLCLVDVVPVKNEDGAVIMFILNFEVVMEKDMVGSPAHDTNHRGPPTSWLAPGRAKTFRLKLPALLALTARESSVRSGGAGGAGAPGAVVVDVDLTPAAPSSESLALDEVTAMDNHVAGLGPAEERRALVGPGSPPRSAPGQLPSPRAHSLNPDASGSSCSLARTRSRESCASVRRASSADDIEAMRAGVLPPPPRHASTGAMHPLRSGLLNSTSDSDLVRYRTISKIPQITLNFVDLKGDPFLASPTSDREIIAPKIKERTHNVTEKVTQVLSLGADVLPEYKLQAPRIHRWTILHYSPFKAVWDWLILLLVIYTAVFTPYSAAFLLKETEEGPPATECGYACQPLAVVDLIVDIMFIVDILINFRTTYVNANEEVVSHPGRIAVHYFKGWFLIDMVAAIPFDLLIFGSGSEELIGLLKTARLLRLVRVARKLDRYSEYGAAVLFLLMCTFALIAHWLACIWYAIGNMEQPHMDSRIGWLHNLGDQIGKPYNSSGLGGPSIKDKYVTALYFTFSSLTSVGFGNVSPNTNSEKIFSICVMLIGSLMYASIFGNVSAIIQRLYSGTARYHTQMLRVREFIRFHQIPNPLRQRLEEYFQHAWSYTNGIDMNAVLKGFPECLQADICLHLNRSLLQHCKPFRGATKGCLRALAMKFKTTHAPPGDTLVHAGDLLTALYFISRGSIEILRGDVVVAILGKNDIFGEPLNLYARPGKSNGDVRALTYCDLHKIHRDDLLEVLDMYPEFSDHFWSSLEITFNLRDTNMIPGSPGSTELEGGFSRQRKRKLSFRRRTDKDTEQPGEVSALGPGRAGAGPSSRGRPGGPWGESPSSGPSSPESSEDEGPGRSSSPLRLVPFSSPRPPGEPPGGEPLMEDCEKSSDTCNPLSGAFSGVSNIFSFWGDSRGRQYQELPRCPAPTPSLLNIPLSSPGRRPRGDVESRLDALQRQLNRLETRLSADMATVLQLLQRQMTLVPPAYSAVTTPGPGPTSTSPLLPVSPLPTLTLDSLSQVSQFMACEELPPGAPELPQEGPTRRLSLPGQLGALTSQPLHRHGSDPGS

O=C(NCC1(O)CCC(F)(F)CC1)c1cc(=O)c2cc(F)ccc2o1 [Compound 5]
reduction in parasite levels compared with control (C. parvum; NOD SCID gamma mouse, 20 mg/kg orally once a day for 7 d, day 8): 100 fold | reduction of parasite burden (C. parvum; dosed orally for 7 d, NOD SCID gamma mouse model): two orders of magnitude | IC50 (CYP1A2): > 10 µM | toxicity in mice [1]: showed toxicity | EC50 [2]: > 100 µM | compound present in mouse stools ([3]; after oral dosing): 17 % of oral dose | AUC(0-t) ([3]; female, BALB/c, whole blood, po, orally, 10 mg/kg, read-out: Mouse PK orally AUC0–1440): 21700 to 50000 ng·h/mL | Cmax ([3]; female, BALB/c, whole blood, po, orally, 10 mg/kg, read-out: Mouse PK orally Cmax): 5400 ng/mL | bioavailability ([3]; female, BALB/c, whole blood, po, orally, 10 mg/kg, read-out: Mouse PK orally F% (oral bioavailability)): 100% | Tmax ([3]; female, BALB/c, whole blood, po, orally, 10 mg/kg, read-out: Mouse PK orally Tmax): 2 h | AUC ([3]; female, Balb/c, whole blood, iv, intravenously, 3 mg/kg, read-out: Mouse PK intravenously AUC (converted)): 14800 ng·h/mL | half-life ([3]; female, Balb/c, whole blood, iv, intravenously, 3 mg/kg, read-out: Mouse PK intravenously T1/2 (converted)): 2.5 h | Vd ([3]; female, Balb/c, whole blood, iv, intravenously, 3 mg/kg, read-out: Mouse PK intravenously Vdss): 1 L/kg | Mouse PK intravenously Clb ([3]; intravenously, 3 mg/kg): 3.4 mL⋅min^−1⋅kg^−1 | Mouse PK orally F% (oral bioavailability) ([3]; orally, 10 mg/kg): completely bioavailable
